In US11771673B2, “On site generated performic acid compositions for teat treatment” (ECOLAB USA INC., priority 2018, dated 2023):

Test: Accelerated stability of hydrogen peroxide premixes with different self-indicators under 40° C.
Type: physicochemical
Details: approximately 13 weeks
Experimental: The hydrogen peroxide premixes were prepared according to Table 10 with differing types of FD&C dyes. The compositions were stored in a 40° C. oven for approximately 13 weeks. Their stability, as evaluated by the presence of hydrogen peroxide, was compared and is depicted in Table 11.

SMILES: O=S(=O)([O-])c1ccc(N=Nc2c(O)ccc3cc(S(=O)(=O)[O-])ccc23)cc1.[Na+].[Na+] [FD&C yellow 6]
- stability of dye in hydrogen peroxide premix: significantly more stable than FD&C yellow 5
